pEC50, pKi: −log10 of the molar value.

For assay [1], the system named is hypoxia-induced pulmonary hypertension rat. Nature of the assay: Acute efficacy in hypoxia-induced pulmonary hypertension in rat following intratracheal administration. Format: in vivo. The source says: Acute Efficacy in Hypoxia-Induced Pulmonary Hypertension in Rat Following Intratracheal Administration Charles River Sprague-Dawley (CD) male rats weighing approximately 350 g were implanted with HD-S21 dual pressure telemetry transmitters (Data Sciences International (DSI)) into the pulmonary artery and femoral artery. This transmitter enables simultaneous measurement of both pulmonary and systemic hemodynamic parameters in the same animal. After a 7-10 day post-operative recovery period, animals were subjected to a normobaric hypoxic (10% oxygen) environment using a Higher Peak Mountain Air Generator (MAG-10) connected to a modified rodent cage via a fitted inlet port. Oxygen (at 10%), temperature, humidity, and CO2 were controlled within normal range and animals were maintained on a 12 hour light-dark cycle with ad libitum access to food and water. After two weeks exposure to 10% O2 hypoxic environment, systolic pulmonary arterial pressure readings increased from 25 mmHg to greater than 50 mmHg. Using a 48 hour baseline average, animals with readings between 50-110 mmHg (standard deviation of less than 10 mmHg) and minimal changes in systolic systemic blood pressure were enrolled for study. Animals were utilized for up to 2 studies per week for 4 weeks with a minimum of 2 days washout between doses of test agent. Compound or vehicle was administered intra-tracheally under light isoflurane anesthesia (5% in oxygen; flow rate 2.0 L/min for 3 minutes). Once anesthetized, rats were placed on an angled intubation stand in supine position and the trachea visualized using a small laryngoscope. Animals then received either 0.5 mL/kg of vehicle or 0.5 mL/kg vehicle containing compound intra-tracheally delivered via microsprayer by use of a Penn-Century Microsprayer® needle 3″ (Model IA-1B-GP) attached to a 1 mL high pressure syringe (Penn Century-Model B-SYR-PL1000) (Penn-Century, Philadelphia, Pa.). The Microsprayer® tip was inserted into the trachea up to the point at which the bend in the needle is close to the tip of the snout, which positions the tip of the Microsprayer® in front of the carina (bifurcation of trachea at the bronchi). After dose delivery the animal is placed on its back in the home cage for recovery. Hemodynamic measurements were continuously recorded and readings consolidated to hourly moving averages. Each animal received a vehicle on Day 1 followed by vehicle or test agent on Day 2. Change from vehicle baseline was calculated by subtracting the hourly Day 1 vehicle response from the hourly Day 2 response and treatment group data was expressed as mean±SEM. Decreases of systolic blood pressure (SBP) and systolic pulmonary arterial pressure (PAP) were measured at a particular IT dose (mpk milligrams per kilogram) for the following Example compounds.

Assay [2] concerns Spontaneously hypertensive rats (SHR). Nature of the assay: Acute efficacy in spontaneously hypertensive rats (SHR). Format: in vivo, rat. An excerpt: Acute Efficacy in Spontaneously Hypertensive Rats (SHR)
Spontaneously hypertensive rats (SHR, male, Charles River) were implanted with DSI TA11PA-C40 telemetry device (Data Sciences, Inc., St. Paul, Minn.) under isoflurane or ketamine/metomidine anesthesia. The telemetry unit catheter was inserted into the descending aorta via the femoral artery and the telemetry device was implanted subcutaneously in the left flank area. Animals were allowed to recover from surgery for 14 days before the start of any studies. Blood pressure, heart rate, and activity signals from conscious, freely moving rats were recorded continuously for 30 seconds every 10 minutes. On the day prior to administration of compound, a single oral dose of vehicle (10% transcutol/20% Cremophor/70% water) was administered to all animals to establish baseline control data. The blood pressure lowering efficacy of compound (PO) or vehicle was evaluated following a single oral gavage. Data were collected as hourly averages, and changes in blood pressure were calculated by subtracting control baseline data on an hourly basis. Animals were maintained on normal diet with a 12 hour light-dark cycle.
Maximum peak decreases of systolic blood pressure (SBP) in SHR at a particular P.O. dose (mpk milligrams per kilogram) for the following Example compounds are provided.

For assay [3], the target named is sGC α1/β1 heterodimer (Homo sapiens (Human), UniProt Q02108+Q02153). Nature of the assay: Cell-based sGC functional assay (cyclic GMP assay for sGC activator: CASA assay). The conditions noted are these: CHO-K1/sGC cells; for Emax: CHO-K1, activity expressed as percentage of compound A (standard), read-out: % Activation; for pEC50: inflection point, 4P fit, read-out: IP. An outline of the steps:
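CHO-K1 cells stably expressing human sGC α1/β1 were pre-incubated 30 min at 25° C with or without 1 μM DETA-NO, then exposed to compound for 1 hr at 37° C with 0.5 mM IBMX and 2.5% DMSO final. Intracellular cGMP was measured by HTRF, expressed as % of reference sGC-HDA maximum; inflection point and maximum fold induction came from 4-parameter fits.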

The target of assay [4] is human recombinant sGC enzyme (Homo sapiens (Human), UniProt Q02108+Q02153). Nature of the assay: Size Exclusion Chromatography (SEC) competition binding assay using [3H] Ex-77B as the radioligand. The note with it: [3H] Ex-77B radioligand, 24 hours at 37° C. The procedure, abridged:
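Recombinant human sGC binding measured by competition against tritiated Ex-77B radioligand, with non-specific binding defined by 1 μM unlabeled Ex-77B.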
A general note: In gel filtration, larger molecules generally elute earlier.

As a reminder, the pKi is −log10 of the Ki, conventionally taken in molar units. As to `CC(C)(Cc1csc([C@]2(C)C(=O)Nc3nc(-c4nn(CCC(F)(F)C(F)(F)F)c5cc(Cl)ccc45)nc(N)c32)n1)C(=O)O` [Example 92B, (S)-3-(2-{4-amino-2-[6-chloro-1-(3,3,4,4,4-pentafluorobutyl)-1H-indazol-3-yl]-5-methyl-6-oxo-6,7-dihydro-5H-pyrrolo[2,3-d]pyrimidin-5-yl}-1,3-thiazol-4-yl)-2,2-dimethylpropanoic acid], in assay [1] (Dose IT 0.03 mpk), the “Category: decrease in SBP (at minimum decrease in PAP of ≥15 mmHg)” value (from here on “Category: decrease in SBP”) is reported as “A (decrease in SBP 0-5 mmHg)”. Also, in assay [2] (Dose P.O. 0.3 mpk), the “Category: maximum peak decrease of systolic blood pressure (SBP) in SHR” value (“Category: maximum peak decrease” below) was “A (decrease in SBP in SHRs 5-25 mmHg)”. Besides, in assay [3], the Emax worked out at 111% and the pEC50 is 6.66. Further, the negative-log Ki (pKi) in assay [4] is 9.76.
Turning to `C[C@@]1(c2ccc(CCC(=O)O)cc2)C(=O)Nc2nc(-c3nn(Cc4ccccc4F)c4ncccc34)nc(N)c21` [Example 21B, (S)-3-(4-{4-amino-2-[1-(2-fluorobenzyl)-1H-pyrazolo[3,4-b]pyridin-3-yl]-5-methyl-6-oxo-6,7-dihydro-5H-pyrrolo[2,3-d]pyrimidin-5-yl}phenyl)propanoic acid], in assay [1] (Dose IT 0.03 mpk), the “Category: decrease in SBP” value is reported as “A (decrease in SBP 0-5 mmHg)”. Further, in assay [2] (Dose P.O. 3 mpk), the “Category: maximum peak decrease” value is “A (decrease in SBP in SHRs 5-25 mmHg)”. Moreover, in assay [3], the Emax came to 93% and the pEC50 was 6.44. Besides, the pKi in assay [4] was 10.19.
In the case of `C[C@@]1(c2ccc(CCC(=O)O)cc2)C(=O)Nc2nc(-c3nn(CCC(F)(F)C(F)(F)F)c4ncccc34)nc(N)c21` (single isomer, unassigned) [Example 7A], the “Category: decrease in SBP” value in assay [1] (Dose IT 0.1 mpk) was “B (decrease in SBP 5-10 mmHg)”. Also, in assay [2] (Dose P.O. 3 mpk), the “Category: maximum peak decrease” value is “A (decrease in SBP in SHRs 5-25 mmHg)”. In assay [3], the Emax amounted to 98% and the pEC50 is 5.99. The negative logarithm of the Ki (pKi) in assay [4] is 9.81.
With `CC(C)(Cc1csc([C@]2(C)C(=O)Nc3nc(-c4nn(CCC(F)(F)C(F)(F)F)c5ncccc45)nc(N)c32)n1)C(=O)O` (single isomer, unassigned) [Example 77B], in assay [1] (Dose IT 0.03 mpk), the “Category: decrease in SBP” value is “A (decrease in SBP 0-5 mmHg)”. Besides, in assay [2] (Dose P.O. 1 mpk), the “Category: maximum peak decrease” value was “C (decrease in SBP in SHRs>40 mmHg)”. In assay [3], the Emax was determined as 105% and the pEC50 was 6.31. Also, the pKi in assay [4] was 9.63.
With `C[C@@]1(c2ccc(CCC(=O)O)cc2)C(=O)Nc2nc(-c3nn(CCC(F)(F)C(F)(F)F)c4cc(Cl)ccc34)nc(N)c21` [Example 10B, (S)-3-(4-{4-Amino-2-[6-chloro-1-(3,3,4,4,4-pentafluorobutyl)-1H-indazol-3-yl]-5-methyl-6-oxo-6,7-dihydro-5H-pyrrolo[2,3-d]pyrimidin-5-yl}phenyl)propanoic acid], the “Category: decrease in SBP” value in assay [1] (Dose IT 0.01 mpk) is on record as “A (decrease in SBP 0-5 mmHg)”. Besides, in assay [2] (Dose P.O. 3 mpk), the “Category: maximum peak decrease” value was “A (decrease in SBP in SHRs 5-25 mmHg)”. In assay [3], the Emax is 117% and the pEC50 is 6.34. The pKi in assay [4] was 9.82.
Consider `CC(C)(Cc1csc(C2(C)C(=O)Nc3nc(-c4nn(CCC(F)(F)C(F)(F)F)c5ncc(F)cc45)nc(N)c32)n1)C(=O)O` (stereo not drawn) [Example 84A, 3-(2-{4-amino-2-[5-fluoro-1-(3,3,4,4,4-pentafluorobutyl)-1H-pyrazolo[3,4-b]pyridin-3-yl]-5-methyl-6-oxo-6,7-dihydro-5H-pyrrolo[2,3-d]pyrimidin-5-yl}-1,3-thiazol-4-yl)-2,2-dimethylpropanoic acid], for which the “Category: decrease in SBP” value in assay [1] (Dose IT 0.03 mpk) is recorded as “A (decrease in SBP 0-5 mmHg)”. In addition, the “Category: maximum peak decrease” value in assay [2] (Dose P.O. 1 mpk) is “C (decrease in SBP in SHRs>40 mmHg)”. Moreover, in assay [3], the Emax was 113% and the pEC50 is 6.89. Moreover, in assay [4], the pKi is 9.78.
On to `CC(C)(Cc1csc([C@]2(C)C(=O)Nc3nc(-c4nn(Cc5cccc(F)c5)c5ccccc45)nc(N)c32)n1)C(=O)O` [Example 222A, (S)-3-(2-{4-amino-2-[1-(3-fluoro-benzyl)-1H-indazol-3-yl]-5-methyl-6-oxo-6,7-dihydro-5H-pyrrolo[2,3-d]pyrimidin-5-yl}-1,3-thiazol-4-yl)-2,2-dimethyl-propanoic acid], for which the “Category: decrease in SBP” value in assay [1] (Dose IT 0.01 mpk) was “B (decrease in SBP 5-10 mmHg)”. Moreover, in assay [3], the Emax was determined as 105% and the pEC50 is 7.15. The pKi in assay [4] was 9.95.
As for `CC1(c2nc(CCC(=O)O)c[nH]2)C(=O)Nc2nc(-c3nn(Cc4ccccc4F)c4cc(Cl)ccc34)nc(N)c21` (stereo not drawn) [Example 235B, 3-(2-{4-Amino-2-[6-chloro-1-(2-fluorobenzyl)-1H-indazol-3-yl]-5-methyl-6-oxo-6,7-dihydro-5H-pyrrolo[2,3-d]pyrimidin-5-yl}-1H-imidazol-4-yl)propanoic acid], the “Category: decrease in SBP” value in assay [1] (Dose IT 0.01 mpk) is reported as “A (decrease in SBP 0-5 mmHg)”. Also, in assay [3], the Emax amounted to 86.8% and the pEC50 was 6.20. For the same compound, the pKi in assay [4] is 9.39.
Consider `C[C@@]1(c2ccc(CCC(=O)O)cc2)C(=O)Nc2nc(-c3nn(CCC(F)(F)C(F)(F)F)c4cc(F)ccc34)nc(N)c21` [Example 46B, (S)-3-(4-{4-amino-2-[6-fluoro-1-(3,3,4,4,4-pentafluorobutyl)-1H-indazol-3-yl]-5-methyl-6-oxo-6,7-dihydro-5H-pyrrolo[2,3-d]pyrimidin-5-yl}phenyl)propanoic acid], for which the “Category: decrease in SBP” value in assay [1] (Dose IT 0.03 mpk) is reported as “A (decrease in SBP 0-5 mmHg)”. Besides, the “Category: maximum peak decrease” value in assay [2] (Dose P.O. 3 mpk) is “A (decrease in SBP in SHRs 5-25 mmHg)”. In addition, in assay [3], the Emax came out at 95% and the pEC50 was 6.19. Also, the pKi in assay [4] is 9.67.
`C[C@@]1(c2ccc(CCC(=O)O)cc2)C(=O)Nc2nc(-c3nn(CC4CCCC4)c4cc(Cl)ccc34)nc(N)c21` [Example 160B, (S)-3-(4-{4-amino-2-[6-chloro-1-(cyclopentylmethyl)-1H-indazol-3-yl]-5-methyl-6-oxo-6,7-dihydro-5H-pyrrolo[2,3-d]pyrimidin-5-yl}phenyl)propanoic acid]: the “Category: decrease in SBP” value in assay [1] (Dose IT 0.01 mpk) was “B (decrease in SBP 5-10 mmHg)”. Also, in assay [3], the Emax turned out to be 108% and the pEC50 is 6.95. Besides, the pKi in assay [4] was 10.21.
Turning to `CC1(c2cn(CCC(=O)O)nn2)C(=O)Nc2nc(-c3nn(CCC(F)(F)C(F)(F)F)c4ncccc34)nc(N)c21` (stereo not drawn) [Example 12B, 3-(4-{4-amino-5-methyl-6-oxo-2-[1-(3,3,4,4,4-pentafluorobutyl)-1H-pyrazolo[3,4-b]pyridin-3-yl]-6,7-dihydro-5H-pyrrolo[2,3-d]pyrimidin-5-yl}-1H-1,2,3-triazol-1-yl)propanoic acid], the “Category: decrease in SBP” value in assay [1] (Dose IT 0.1 mpk) is reported as “B (decrease in SBP 5-10 mmHg)”. Also, in assay [3], the Emax was 81% and the pEC50 is 5.54. The pKi in assay [4] is 8.69.

Values taken from patent publication US10030027B2, “Soluble guanylate cyclase stimulators” (MERCK SHARP & DOHME CORP., priority 2015, dated 2018).
